Experimental data reported in ChEMBL document CHEMBL5042543, “Bridged Piperidine Analogues of a High Affinity Naphthalene-Based P2Y14R Antagonist” (J Med Chem, 2022).
In brackets after ≈: the same amount, converted by molar mass.

Experiments:
P2Y purinoceptor 14 = target: T1, P2Y purinoceptor 14 (Homo sapiens, UniProt Q15391); assay: cell-based
T1 sequence (Q15391 whole entry): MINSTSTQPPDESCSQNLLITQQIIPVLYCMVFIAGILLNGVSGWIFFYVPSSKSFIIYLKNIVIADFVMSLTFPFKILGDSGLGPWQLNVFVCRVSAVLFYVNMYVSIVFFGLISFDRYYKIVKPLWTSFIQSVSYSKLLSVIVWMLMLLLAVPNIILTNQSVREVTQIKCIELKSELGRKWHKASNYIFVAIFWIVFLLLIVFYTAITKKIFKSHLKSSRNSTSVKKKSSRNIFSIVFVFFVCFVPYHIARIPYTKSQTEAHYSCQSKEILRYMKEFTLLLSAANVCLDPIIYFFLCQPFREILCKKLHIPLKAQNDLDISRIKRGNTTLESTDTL
Description: Inhibition of fluorescent antagonist binding to human P2Y14R expressed in CHO cells preincubated for 30 mins followed by 6-amino-9-(2-carboxy-4-((6-(4-(4-(4-(4-(3-carboxy 6-(4-(trifluoromethyl)phenyl)naphthalen-1-yl)phenyl)piperidin-1-yl)butyl)-1H-1,2,3-triazol-1-yl)hexyl)carbamoyl)phenyl)-3-iminio-5-sulfo-3H-xanthene-4-sulfonate addition and measured after 30 mins by BD FACSCalibur flow cytometry analysis

[1] = Distribution coefficient, logD of compound at pH 7.4 by HPLC analysis; type: physicochemical; settings: octanol/water
[2] = Plasma protein binding in mouse assessed as compound remaining at 5 hrs; type: ADME, cell-free
liver carboxylesterase = target: T2, liver carboxylesterase (Sus scrofa, UniProt Q29550); assay: Stability of the compound in aqueous medium at pH 7.4 assessed as half life in presence of porcine liver esterase; type: physicochemical; settings: pig
T2 sequence (Q29550 whole entry): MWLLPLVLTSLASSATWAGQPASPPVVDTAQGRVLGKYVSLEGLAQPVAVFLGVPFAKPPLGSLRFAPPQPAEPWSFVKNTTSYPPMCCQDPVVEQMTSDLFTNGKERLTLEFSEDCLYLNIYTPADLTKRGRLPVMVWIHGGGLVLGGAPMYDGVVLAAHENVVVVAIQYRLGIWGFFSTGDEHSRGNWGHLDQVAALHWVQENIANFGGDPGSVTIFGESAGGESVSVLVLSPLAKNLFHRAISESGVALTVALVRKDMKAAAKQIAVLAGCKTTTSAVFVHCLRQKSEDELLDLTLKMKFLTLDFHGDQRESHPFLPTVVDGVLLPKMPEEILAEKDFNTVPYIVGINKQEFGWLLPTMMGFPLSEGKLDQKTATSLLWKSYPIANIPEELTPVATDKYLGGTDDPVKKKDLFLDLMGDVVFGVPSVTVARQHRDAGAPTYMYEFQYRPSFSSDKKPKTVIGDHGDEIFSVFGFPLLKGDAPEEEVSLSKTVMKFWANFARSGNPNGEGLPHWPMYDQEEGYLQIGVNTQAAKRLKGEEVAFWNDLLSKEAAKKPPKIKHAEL

[3] = target: Sigma non-opioid intracellular receptor 1 (Homo sapiens, UniProt Q99720); assay: Inhibition of sigma 1 receptor (unknown origin) assessed as binding constant
Sigma non-opioid intracellular receptor 1, sequence (Q99720 whole entry): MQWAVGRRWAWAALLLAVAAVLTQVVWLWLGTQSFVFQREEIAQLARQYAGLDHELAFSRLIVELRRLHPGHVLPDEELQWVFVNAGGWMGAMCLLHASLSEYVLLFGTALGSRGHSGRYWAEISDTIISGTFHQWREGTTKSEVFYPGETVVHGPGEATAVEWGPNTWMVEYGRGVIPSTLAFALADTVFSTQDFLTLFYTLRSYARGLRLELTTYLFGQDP

[4] = Plasma protein binding in rat assessed as compound remaining at 5 hrs; type: ADME, cell-free
[5] = Plasma protein binding in human assessed as bound fraction; type: ADME, cell-free
[6] = Aqueous solubility of the compound at pH 4
[7] = Aqueous solubility of the compound at pH 7.4
[8] = target: Sigma intracellular receptor 2 (Homo sapiens, UniProt Q5BJF2); assay: Inhibition of sigma 2 receptor (unknown origin) assessed as binding constant
Sigma intracellular receptor 2, sequence (Q5BJF2 whole entry): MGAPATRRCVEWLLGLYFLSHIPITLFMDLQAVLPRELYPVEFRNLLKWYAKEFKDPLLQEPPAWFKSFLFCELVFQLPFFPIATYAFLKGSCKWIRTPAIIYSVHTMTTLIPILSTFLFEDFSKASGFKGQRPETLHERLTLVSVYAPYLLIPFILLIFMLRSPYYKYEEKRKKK

[9] = target: Beta-3 adrenergic receptor (Homo sapiens, UniProt P13945); assay: Inhibition of adrenergic beta 3 receptor (unknown origin) assessed as binding constant
Beta-3 adrenergic receptor, sequence (P13945 whole entry): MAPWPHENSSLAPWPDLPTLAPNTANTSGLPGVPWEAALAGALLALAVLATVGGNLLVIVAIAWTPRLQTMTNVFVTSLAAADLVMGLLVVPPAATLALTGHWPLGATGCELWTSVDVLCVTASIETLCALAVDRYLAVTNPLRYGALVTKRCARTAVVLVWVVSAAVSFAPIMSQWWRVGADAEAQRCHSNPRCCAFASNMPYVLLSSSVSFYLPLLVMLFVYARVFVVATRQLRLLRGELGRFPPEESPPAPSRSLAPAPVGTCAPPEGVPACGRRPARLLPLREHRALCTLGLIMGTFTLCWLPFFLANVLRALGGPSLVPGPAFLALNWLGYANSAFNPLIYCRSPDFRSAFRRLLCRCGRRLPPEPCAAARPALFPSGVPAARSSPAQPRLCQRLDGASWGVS

D(1B) dopamine receptor = D(1B) dopamine receptor (Homo sapiens, UniProt P21918); assay: Inhibition of dopamine D5 receptor (unknown origin) assessed as binding constant
D(1B) dopamine receptor, sequence (P21918 whole entry): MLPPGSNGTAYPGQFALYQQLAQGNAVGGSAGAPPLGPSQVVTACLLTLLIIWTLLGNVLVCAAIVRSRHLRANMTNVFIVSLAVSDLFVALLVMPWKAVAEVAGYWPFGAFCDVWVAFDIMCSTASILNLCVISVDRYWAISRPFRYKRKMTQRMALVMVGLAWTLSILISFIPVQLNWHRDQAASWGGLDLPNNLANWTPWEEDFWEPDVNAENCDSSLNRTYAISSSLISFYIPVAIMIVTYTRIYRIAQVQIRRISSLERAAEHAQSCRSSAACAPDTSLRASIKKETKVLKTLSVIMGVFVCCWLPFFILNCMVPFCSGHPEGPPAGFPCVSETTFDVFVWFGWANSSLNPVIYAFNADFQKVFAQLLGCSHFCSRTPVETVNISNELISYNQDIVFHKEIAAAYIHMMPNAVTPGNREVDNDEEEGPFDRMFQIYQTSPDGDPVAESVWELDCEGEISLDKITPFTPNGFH

| Compound | IC50 (P2Y purinoceptor 14) [nM] | logD ([1]; read-out: logD) | solubility ([6]; buffer) [µg/mL] | solubility ([7]; buffer) [µg/mL] | further results |
| --- | --- | --- | --- | --- | --- |
| CC(=O)N1C[C@H]2C[C@@H]1C[C@@H]2c1ccc(-c2cc(C(=O)O)cc3cc(-c4ccc(C(F)(F)F)cc4)ccc23)cc1 | 99.3 | 0.92 |  |  |  |
| CN(C)C(=O)COC(=O)c1cc(-c2ccc([C@@H]3C[C@@H]4C[C@H]3NC4=O)cc2)c2ccc(-c3ccc(C(F)(F)F)cc3)cc2c1 |  |  |  |  | Fu [2]: 0%; half-life (liver carboxylesterase): > 72 h; Ki [3]: 6900 nM; Fu [4]: 0%; PPB [5]: 99.79% |
| CC(=O)N1C[C@@H]2C[C@H]1C[C@H]2c1ccc(-c2cc(C(=O)O)cc3cc(-c4ccc(C(F)(F)F)cc4)ccc23)cc1 (racemic) |  | 0.92 | 0.13 (≈ 0.245 µM) | 2.53 (≈ 4.78 µM) |  |
| O=C(O)c1cc(-c2ccc([C@@]3(O)C[C@H]4CC[C@@H]3CN4)cc2)c2ccc(-c3ccc(C(F)(F)F)cc3)cc2c1 (racemic) | 15.6 | 0.96 |  |  |  |
| O=C(O)c1cc(-c2ccc(C34CCNCC3C4)cc2)c2ccc(-c3ccc(C(F)(F)F)cc3)cc2c1 (racemic) | 45.5 | 2.4 |  | 0.17 (≈ 0.349 µM) | solubility ([6]; aqueous medium): 1.32 µg/mL (≈ 2.71 µM) |
| CN(C)C(=O)COC(=O)c1cc(-c2ccc([C@@H]3C[C@@H]4C[C@H]3C(=O)N4)cc2)c2ccc(-c3ccc(C(F)(F)F)cc3)cc2c1 |  |  |  |  | half-life (liver carboxylesterase): > 72 h |
| O=C(O)c1cc(-c2ccc(C34CCNCC3C4(F)F)cc2)c2ccc(-c3ccc(C(F)(F)F)cc3)cc2c1 (racemic) |  | 2.7 |  |  |  |
| COC1(c2ccc(-c3cc(C(=O)O)cc4cc(-c5ccc(C(F)(F)F)cc5)ccc34)cc2)[C@H]2CC[C@H]1CNC2 (stereo partly drawn) | 44.6 | 1.4 | 1.81 (≈ 3.4 µM) |  | solubility ([7]; aqueous medium): 0.88 µg/mL (≈ 1.66 µM) |
| N[C@@H]1C[C@H](CO)C[C@H]1c1ccc(-c2cc(C(=O)O)cc3cc(-c4ccc(C(F)(F)F)cc4)ccc23)cc1 |  | 1.1 |  |  |  |
| N[C@@H]1C[C@H](C(=O)O)[C@@H](c2ccc(-c3cc(C(=O)O)cc4cc(-c5ccc(C(F)(F)F)cc5)ccc34)cc2)C1 |  |  |  |  | Ki [8]: 2000 nM |
| CC1CNCCC1c1ccc(-c2cc(C(=O)O)cc3cc(-c4ccc(C(F)(F)F)cc4)ccc23)cc1 (stereo not drawn) |  | 2.8 |  |  |  |
| O=C(O)c1cc(-c2ccc([C@H]3C[C@H]4C[C@@H]3CN4)cc2)c2ccc(-c3ccc(C(F)(F)F)cc3)cc2c1 (racemic) |  | 2 | 2.73 (≈ 5.6 µM) | 0.47 (≈ 0.964 µM) | Ki [8]: 650 nM; Ki [9]: > 1000 nM |
| O=C(O)c1cc(-c2ccc(C3[C@H]4CC[C@H]3CNC4)cc2)c2ccc(-c3ccc(C(F)(F)F)cc3)cc2c1 (stereo partly drawn) | 696 | 3 | 0.32 (≈ 0.638 µM) | 0.16 (≈ 0.319 µM) |  |
| CC(=O)N1C[C@@H]2C[C@H]1C[C@H]2c1ccc(-c2cc(C(=O)O)cc3cc(-c4ccc(C(F)(F)F)cc4)ccc23)cc1 | 64.1 |  |  |  | Ki (D(1B) dopamine receptor): > 1000 nM; Ki [8]: 1700 nM; logD [1]: 0.55; Ki [3]: 4200 nM |
| O=C(O)c1cc(-c2ccc(C3CC4CCC(C3)N4)cc2)c2ccc(-c3ccc(C(F)(F)F)cc3)cc2c1 (stereo not drawn) | 38.3 | 2.3 | 0.38 (≈ 0.758 µM) | 0.13 (≈ 0.259 µM) |  |
| O=C(O)c1cc(-c2ccc(C3=CC4CCC(C3)N4)cc2)c2ccc(-c3ccc(C(F)(F)F)cc3)cc2c1 (racemic) |  | 2.3 |  |  |  |
| CCOC(=O)N1C[C@H]2C[C@@H]1C[C@@H]2c1ccc(-c2cc(C(=O)O)cc3cc(-c4ccc(C(F)(F)F)cc4)ccc23)cc1 | 442 |  |  |  |  |
| O=C(O)c1cc(-c2ccc(C34CCN(CC3)CC4)cc2)c2ccc(-c3ccc(C(F)(F)F)cc3)cc2c1 |  | 4.2 | 1.5 (≈ 2.99 µM) | 0.55 (≈ 1.1 µM) |  |
